Reference: ChEMBL document CHEMBL1201862, “PubChem BioAssay data set” (2004)
Each block holds one compound with its values, some of them ahead of it. Active and inactive are the calls of the source.

What was measured:
[1] = biological target: T1, Polyadenylate-binding protein 1 (Homo sapiens, UniProt P11940); assay: MLLE binding blockers, Cy5 peptide tracer – biochemical, fluorescence polarization, Cy5-PAM2 peptide, secondary, miRNA deadenylation inhibitor project, dose response (AID 602260); type: functional; conditions: read-out: IC50_Mean
[2] = biological target: T1, Polyadenylate-binding protein 1; assay: MLLE domain peptide-binding blockers, IC50 – biochemical, fluorescence polarization, FITC-PAM2 peptide, dose response (AID 602259); type: functional; conditions: read-out: IC50_Mean
fMet-Leu-Phe receptor = biological target: T2, fMet-Leu-Phe receptor (Homo sapiens, UniProt P21462); assay: formyl peptide receptor binders – dose response (AID 519); type: functional
T2 sequence (P21462 whole entry): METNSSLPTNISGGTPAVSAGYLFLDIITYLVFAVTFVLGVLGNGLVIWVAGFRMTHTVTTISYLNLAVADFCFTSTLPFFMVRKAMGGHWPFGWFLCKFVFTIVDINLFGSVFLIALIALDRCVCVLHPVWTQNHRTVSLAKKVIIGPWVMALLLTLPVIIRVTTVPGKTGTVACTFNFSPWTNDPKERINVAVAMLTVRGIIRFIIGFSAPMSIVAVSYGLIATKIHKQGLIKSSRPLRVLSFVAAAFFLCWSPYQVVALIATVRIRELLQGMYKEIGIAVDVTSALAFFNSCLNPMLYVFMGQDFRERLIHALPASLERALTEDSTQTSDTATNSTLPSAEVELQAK

Estrogen receptor beta [3] = biological target: T3, Estrogen receptor beta (Homo sapiens, UniProt Q92731); assay: blockers of SRC-3 recruitment to ERβ – biochemical, ELISA, streptavidin-HRP readout, orthogonal assay, confirmation (AID 1060)
Estrogen receptor beta [4] = biological target: T3, Estrogen receptor beta
[5] = biological target: Heat shock protein HSP 90-alpha (Homo sapiens, UniProt P07900); type: functional, organism-based
[6] = biological target: T4, Nuclear receptor subfamily 0 group B member 1 (Homo sapiens, UniProt P51843); assay: Luminescence-based cell-based high throughput dose response assay for inhibitors of the orphan nuclear receptor subfamily 0, group B, member 1 (DAX1; NR0B1). [Related pubchem assays (depositor defined):AID504766, AID504790]; type: functional
T4 sequence (P51843 whole entry): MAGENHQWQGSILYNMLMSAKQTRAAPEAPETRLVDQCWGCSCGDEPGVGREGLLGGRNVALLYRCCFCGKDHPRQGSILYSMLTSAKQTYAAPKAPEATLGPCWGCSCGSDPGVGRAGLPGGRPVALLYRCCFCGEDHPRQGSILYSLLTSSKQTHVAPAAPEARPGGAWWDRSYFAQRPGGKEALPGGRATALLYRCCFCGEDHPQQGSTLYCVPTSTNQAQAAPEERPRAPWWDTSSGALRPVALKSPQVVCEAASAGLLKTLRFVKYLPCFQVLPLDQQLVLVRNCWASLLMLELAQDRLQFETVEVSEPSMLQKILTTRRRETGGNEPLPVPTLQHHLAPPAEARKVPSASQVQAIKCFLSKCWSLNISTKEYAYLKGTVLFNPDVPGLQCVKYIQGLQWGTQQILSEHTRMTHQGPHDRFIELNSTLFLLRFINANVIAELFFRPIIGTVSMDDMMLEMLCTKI

HEK293 = assay: cells; type: functional, cell-based; conditions: Homo sapiens
[7] = Luminescence Cell-Based Dose Retest to Confirm Inhibitors of Cancer Stem Cells. [Related pubchem assays (depositor defined):AID2717, AID2721]; type: functional; conditions: Homo sapiens
[8] = viability of uninfected HEp-2 cells – cell-based, HTS, cytotoxicity control for RSV inhibitor project, dose response (AID 2410); type: functional; conditions: human respiratory syncytial virus
Beta-galactosidase = Beta-galactosidase (Escherichia coli, UniProt Q8VNN2); assay: Dose response counterscreen for EBI2 assay utilizing the enzyme, b-galactosidase.; type: functional
[9] = Trypanosoma cruzi growth suppression in host cells – NIH3T3 host cells, beta-gal luminescence, confirmation (AID 2044); type: functional, cell-based;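 note: intracellular parasites grown in NIH/3T3 mouse fibroblasts as host cells; luminescent beta-galactosidase reporter signal from transgenic T. cruzi replicating inside host cells; inhibitors lower the luminescence signal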
[10] = NIH3T3 cell viability loss – ATP luminescence, mouse fibroblasts, counter-screen, dose response (AID 2010); type: functional, cell-based;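 note: cells exposed to compound for about 90 hours before reading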
HT-1080 = assay: HT1080 cell viability loss – fluorescence readout (AID 620); type: functional, cell-based; conditions: Homo sapiens
[11] = bead-based luminescence quenchers, dual-tagged ARNT – biochemical, AlphaScreen, cherry-pick, artefact control for ARNT-TACC3 interaction inhibitor project, dose response (AID 651705); type: functional;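 note: AlphaScreen bead proximity signal that flags compounds interfering with the detection technology; potency reflects signal decrease which marks the compound as an assay artifact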
[12] = biological target: T5, Low molecular weight phosphotyrosine protein phosphatase (Homo sapiens, UniProt P24666); type: functional; conditions: read-out: IC50_Mean;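 note: Dose-response confirmation assay measuring inhibition of LMPTP enzyme activity by fluorescence intensity read-out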
T5 sequence (P24666 whole entry): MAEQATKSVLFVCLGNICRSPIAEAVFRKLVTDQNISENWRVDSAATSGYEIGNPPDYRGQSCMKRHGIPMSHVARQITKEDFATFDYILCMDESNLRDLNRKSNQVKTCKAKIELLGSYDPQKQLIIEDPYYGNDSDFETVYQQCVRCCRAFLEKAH

Melanocortin receptor 4 = Melanocortin receptor 4 (Homo sapiens, UniProt P32245); type: functional, cell-based;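 note: Cell-based assay with luminescence read-out, confirmatory dose-response testing for agonist activity of biased ligands at MC4R; human U2OS cells with tagged receptor and beta-arrestin; potency of agonists that increase receptor coupling to beta-arrestin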
[13] = activation of miR-122 Renilla sensor silencing – cell-based, Huh7 psiCHECK-miR122, Renilla luciferase, cherry-picked, dose response (AID 651956); type: functional;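 note: huh7 hepatoma cells stably carrying a psiCHECK-2 miR-122 sensor plasmid; renilla luciferase signal reporting endogenous miR-122 activity after 48 h compound exposure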
Phospholipase A2 = Phospholipase A2 (Homo sapiens, UniProt P04054); type: functional;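 note: confirmatory dose-response counterscreen on phospholipase A2, testing hits that came from an ultra-high-throughput screen for ATG4B inhibitors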
Cysteine protease ATG4B = biological target: T6, Cysteine protease ATG4B (Homo sapiens, UniProt Q9Y4P1); type: functional;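 note: Fluorescence-based dose-response confirmation assay measuring inhibition of ATG4B activity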
T6 sequence (Q9Y4P1 whole entry): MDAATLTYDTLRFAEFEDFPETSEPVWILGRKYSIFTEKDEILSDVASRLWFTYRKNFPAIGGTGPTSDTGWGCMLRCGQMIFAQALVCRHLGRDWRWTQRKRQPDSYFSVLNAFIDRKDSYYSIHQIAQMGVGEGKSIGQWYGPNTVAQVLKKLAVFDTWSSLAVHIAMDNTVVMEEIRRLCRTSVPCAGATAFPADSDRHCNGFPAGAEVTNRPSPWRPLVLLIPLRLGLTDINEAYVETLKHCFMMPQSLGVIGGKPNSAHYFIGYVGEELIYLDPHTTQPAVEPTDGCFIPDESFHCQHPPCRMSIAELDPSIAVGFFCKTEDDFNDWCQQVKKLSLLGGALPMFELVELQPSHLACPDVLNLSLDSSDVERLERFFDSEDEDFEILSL

Beta-galactosidase, sequence (Q8VNN2 whole entry): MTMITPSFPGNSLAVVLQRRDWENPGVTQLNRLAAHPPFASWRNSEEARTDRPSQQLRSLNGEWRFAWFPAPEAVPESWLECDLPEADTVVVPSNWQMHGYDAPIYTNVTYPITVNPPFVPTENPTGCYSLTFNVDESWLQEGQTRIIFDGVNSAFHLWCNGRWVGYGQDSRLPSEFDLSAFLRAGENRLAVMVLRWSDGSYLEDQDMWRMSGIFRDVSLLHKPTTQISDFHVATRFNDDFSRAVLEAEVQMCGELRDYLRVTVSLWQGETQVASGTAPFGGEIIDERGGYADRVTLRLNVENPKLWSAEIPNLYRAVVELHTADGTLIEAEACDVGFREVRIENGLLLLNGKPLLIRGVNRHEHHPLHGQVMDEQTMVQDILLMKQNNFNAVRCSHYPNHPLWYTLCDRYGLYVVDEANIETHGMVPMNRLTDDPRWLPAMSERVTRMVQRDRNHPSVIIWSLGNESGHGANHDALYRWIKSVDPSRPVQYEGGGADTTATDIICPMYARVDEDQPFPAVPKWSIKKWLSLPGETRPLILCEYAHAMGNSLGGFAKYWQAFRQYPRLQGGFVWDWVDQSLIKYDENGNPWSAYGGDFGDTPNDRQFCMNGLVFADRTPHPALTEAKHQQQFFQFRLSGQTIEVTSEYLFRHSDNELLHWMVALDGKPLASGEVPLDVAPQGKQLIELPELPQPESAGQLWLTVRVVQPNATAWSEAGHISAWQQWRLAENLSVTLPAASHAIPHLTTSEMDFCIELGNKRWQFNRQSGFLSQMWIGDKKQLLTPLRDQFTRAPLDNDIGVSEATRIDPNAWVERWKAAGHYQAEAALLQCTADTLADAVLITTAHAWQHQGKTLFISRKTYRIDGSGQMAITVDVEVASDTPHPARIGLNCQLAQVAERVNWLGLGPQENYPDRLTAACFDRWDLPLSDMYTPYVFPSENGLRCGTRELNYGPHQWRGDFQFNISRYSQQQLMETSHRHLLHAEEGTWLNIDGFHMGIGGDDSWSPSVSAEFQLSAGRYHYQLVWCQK
T3 sequence (Q92731 whole entry): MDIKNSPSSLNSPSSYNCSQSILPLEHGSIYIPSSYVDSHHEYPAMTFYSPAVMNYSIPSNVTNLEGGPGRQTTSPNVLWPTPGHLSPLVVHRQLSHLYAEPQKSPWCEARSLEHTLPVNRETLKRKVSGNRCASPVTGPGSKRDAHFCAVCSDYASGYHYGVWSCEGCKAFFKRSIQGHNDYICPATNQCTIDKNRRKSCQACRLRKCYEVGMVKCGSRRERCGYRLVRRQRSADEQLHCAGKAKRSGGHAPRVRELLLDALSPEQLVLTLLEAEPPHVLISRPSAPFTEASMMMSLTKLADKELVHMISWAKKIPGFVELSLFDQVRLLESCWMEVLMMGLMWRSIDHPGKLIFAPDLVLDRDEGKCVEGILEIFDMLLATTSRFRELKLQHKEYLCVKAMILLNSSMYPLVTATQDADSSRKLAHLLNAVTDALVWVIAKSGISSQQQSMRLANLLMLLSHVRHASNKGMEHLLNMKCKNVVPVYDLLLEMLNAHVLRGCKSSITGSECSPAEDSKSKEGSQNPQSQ
T1 sequence (P11940 whole entry, the tested form may be a part): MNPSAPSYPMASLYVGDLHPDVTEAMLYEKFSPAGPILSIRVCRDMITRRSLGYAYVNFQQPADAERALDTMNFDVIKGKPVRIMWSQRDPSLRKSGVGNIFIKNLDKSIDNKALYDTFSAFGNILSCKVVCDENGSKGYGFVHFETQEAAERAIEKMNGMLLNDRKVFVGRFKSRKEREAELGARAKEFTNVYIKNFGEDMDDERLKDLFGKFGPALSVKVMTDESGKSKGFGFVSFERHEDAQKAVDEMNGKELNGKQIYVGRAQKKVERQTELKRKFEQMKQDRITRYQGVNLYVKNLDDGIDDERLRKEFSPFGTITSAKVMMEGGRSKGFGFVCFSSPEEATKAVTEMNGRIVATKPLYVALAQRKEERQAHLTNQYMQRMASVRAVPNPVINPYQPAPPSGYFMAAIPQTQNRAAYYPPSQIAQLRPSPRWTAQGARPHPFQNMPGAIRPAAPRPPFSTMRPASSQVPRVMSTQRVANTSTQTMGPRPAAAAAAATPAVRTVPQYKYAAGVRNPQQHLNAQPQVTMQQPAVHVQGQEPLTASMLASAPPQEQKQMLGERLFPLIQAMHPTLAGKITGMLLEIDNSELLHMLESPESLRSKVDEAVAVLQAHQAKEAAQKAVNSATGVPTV
Melanocortin receptor 4, sequence (P32245 whole entry): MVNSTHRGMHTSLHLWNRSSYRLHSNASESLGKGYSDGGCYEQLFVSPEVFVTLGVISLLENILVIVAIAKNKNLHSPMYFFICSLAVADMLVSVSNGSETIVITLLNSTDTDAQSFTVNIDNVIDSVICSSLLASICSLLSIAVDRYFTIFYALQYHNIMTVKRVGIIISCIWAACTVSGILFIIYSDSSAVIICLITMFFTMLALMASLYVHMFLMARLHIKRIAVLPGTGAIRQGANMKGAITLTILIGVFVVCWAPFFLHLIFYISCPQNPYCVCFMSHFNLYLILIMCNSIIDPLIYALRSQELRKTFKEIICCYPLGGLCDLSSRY
Phospholipase A2, sequence (P04054 whole entry): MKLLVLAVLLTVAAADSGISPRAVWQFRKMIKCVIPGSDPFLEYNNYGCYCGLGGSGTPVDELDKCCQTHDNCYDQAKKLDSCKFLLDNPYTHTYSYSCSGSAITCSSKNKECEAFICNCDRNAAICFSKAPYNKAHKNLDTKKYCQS

IC50 [1]: > 66 µM (inactive)
IC50 [2]: > 66 µM (inactive)
Ki (fMet-Leu-Phe receptor): > 66.7 µM (inactive)
IC50 (Estrogen receptor beta [3]): 96.2 µM (not active)
IC50 (Estrogen receptor beta [4]): 3.37 µM (active)
Structure (SMILES): COc1cc2c3c(c1)/C(=C1/SC(NC(C)=O)=NC1=O)C(=O)N3C(C)(C)C=C2C

IC50 (Beta-galactosidase): > 80 µM (inactive)
Structure (SMILES): Cc1ccc(S(=O)(=O)N2CCN(C(=O)/C=C/c3ccccc3)CC2)cc1C

Ki (fMet-Leu-Phe receptor): > 66.7 µM (inactive)
Structure (SMILES): COc1ccc2cnn(-c3ccccc3)c(=O)c2c1OC

IC50 [12]: 5.17 µM (active)
Structure (SMILES): CC(C)(C)OC(=O)[C@H](Cc1ccccc1)NC(=O)c1ncn2c1c(O)nc1ccc(Br)cc12

EC50 (Melanocortin receptor 4): > 89.2 µM (inactive)
Structure (SMILES): COc1ccc(C(NC(=O)C2CCN(CCOc3ccc(Cl)cc3Cl)CC2)c2cccs2)cc1 (stereo not drawn)

IC50 (Beta-galactosidase): > 80 µM (inactive)
Structure (SMILES): Cc1cc(C)c2c(=O)n3c(nc2c1)C(Cc1ccccc1)NC(=O)c1cc2ccccc2cc1-3 (stereo not drawn)

IC50 (Phospholipase A2): 62.7 µM (inactive)
IC50 (Cysteine protease ATG4B): 11.5 µM (active)
Structure (SMILES): O=C(O)/C=C/c1ccccc1Oc1ccc(Cl)cc1Cl

More lines, now with the values behind:

Structure (SMILES): COc1cc(N=Nc2ccc3ccccc3c2)ccc1O
AC50 [5]: 10.7 µM (active)
IC50 [6]: > 67.6 µM (inactive)
IC50 (HEK293): > 67.6 µM (inactive)
AC50 [7]: 2.65 µM (active)
CC50 [8]: 23.3 µM (active)

Structure (SMILES): COc1ccccc1N(C(=O)c1ccncc1)c1nc(-c2ccc([N+](=O)[O-])cc2)cs1
IC50 (Beta-galactosidase): > 80 µM (inactive)
EC50 [9]: 0.448 µM (active)
EC50 [10]: > 60 µM (inconclusive)
CC50 [8]: 29.6 µM (active)

Structure (SMILES): CC(C)(C)c1ccc(OCC(O)CSc2nc[nH]n2)cc1 (stereo not drawn)
EC50 (HT-1080): > 50 µM (not active)

Structure (SMILES): O=C(COC(=O)c1cccc(O)c1)Nc1nnc(-c2ccccc2)o1
AC50 [11]: 74.4 µM (active)

Structure (SMILES): O=C(O)CC(CC(=O)Nc1ccc(F)c(Cl)c1)c1ccc(Cl)cc1Cl (stereo not drawn)
IC50 [6]: > 67.5 µM (inactive)
IC50 (HEK293): > 67.5 µM (inactive)

Structure (SMILES): CNC(=O)C[C@@H]1CC[C@@H]2[C@H](COc3ccc(NC(=O)Nc4cccc(C)c4)cc3C(=O)N2C)O1
AC50 [13]: 24.9 µM (active)

Structure (SMILES): COc1cccc(/C=N/NC(=O)c2cccs2)c1
IC50 [6]: > 67.5 µM (inactive)
IC50 (HEK293): > 67.5 µM (inactive)
